Data reported in patent US12729221B2, “Anti-inflammatory peptide and use thereof” (MITO QUEST CO., LTD., priority 2020, dated 2026).
Where no end group is shown, it is not given here.

Experiments:
interferon-beta (IFN-b) = test: polyIC-induced IFN-b expression in MLE-12 cells, ELISA; type: cell-based, mouse; conditions: 5 mg/ml polyIC, 16 hours; for expression level of IFN-b: vs control group treated only with polyIC
Experimental: Specifically, polyinosinic:polycytidylic acid (polyIC), which is a synthetic ribonucleic acid known to be associated with viral infection among the PAMPs and promotes the production of interferon and is analogous to an RNA virus gene, was used to induce a viral infection response. First, a serum-free cell culture medium containing 5 mg/ml polyIC and MQP-15, MQP-23, MQP-31, MQP-37, MQP-Y9 or MQP-T234 was treated with 1×10^5 cells of a mouse lung epithelial cell line (MLE-12) for 16 hours. Then, the supernatant was obtained and the expression level of interferon-beta (IFN-b) was checked by enzyme-linked immunosorbent assay (ELISA).
(§1) Specifically, LPS and ATP were used to induce an inflammasome response caused by bacterial infection, and polyIC was used to induce an inflammatory response caused by viral infection. First, 1 mg/ml LPS and 5 mM or 1 mM novel alanine-substituted peptide were mixed in a serum-free cell culture medium, followed by treatment with 1×10^5 cells of IC21. Thereafter, 5 mM ATP and 5 mM or 1 mM novel alanine-substituted peptide were mixed in a serum-free cell culture medium and treated for 30 minutes. Then, the supernatant was obtained and the expression level of IL-1b was checked by ELISA. Also, 5 mg/ml polyIC and 25 mM or 2 mM novel alanine-substituted peptide were mixed in a serum-free cell culture medium, followed by treatment with 1×10^5 cells of MLE-12 for 16 hours. Thereafter, the supernatant was obtained and the expression level of IFN-b was checked by ELISA.
as §1, with “2” for “5 mM or 1”, “amino acid-substituted” for “alanine-substituted”, “and” for “and 25 mM or”
Specifically, polyIC was used to induce a viral infection response. First, a serum-free cell culture medium containing 5 mg/ml polyIC and MQP-37, MQP-37A6, MQP-37D6W, MQP-37D6Y, MQP-37D6H, MQP-37D6K, MQP-37D6R or MQP-37D6V was treated with 1×10^5 cells of MLE-12 for 16 hours. Then, the supernatant was obtained and the expression level of IFN-b was checked by ELISA.

[1] = system: interleukin-1beta (IL-1b); test: IL-1b expression induced by LPS, OMV or LPS and nigericin in IC21, ELISA; type: cell-based, mouse; conditions: 1 mg/ml LPS 4 hours, 5 mM nigericin 1 hour, FIG. 5B-D
Experimental: Specifically, LPS (lipopolysaccharide) and Gram-negative bacteria-derived outer membrane vesicle (OMV) were used as endotoxins to induce the inflammasome response caused by bacterial infection. First, 5 mM MQP-15, MQP-23, MQP-31 or MQP-37 was added to a serum-free cell culture medium containing 0.1 mg/ml LPS or OMV, followed by treatment with 1×10^5 cells of IC21 for 6 hours. Also, MQP-37 or MQP-Y9 was added to a serum-free cell culture medium containing 1 mg/ml LPS and 5 mM nigericin, followed by treatment for 5 hours (LPS treatment-4 hours; nigericin treatment-1 hour). Then, the supernatant was obtained and the expression level of interleukin-1beta (IL-1b) was checked by ELISA, and the cells were lysed and subjected to SDS-PAGE, and the inflammasome factors were analyzed by the Western blot.

interleukin-6 (IL-6) = test: LPS-induced IL-6 expression in IC21, ELISA; type: cell-based, mouse; conditions: 0.1 mg/ml LPS, 6 hours
Experimental: Specifically, LPS was used to induce an inflammatory response caused by bacterial infection. First, MQP-15, MQP-23, MQP-31, MQP-37 or MQP-Y9 was added to a serum-free cell culture medium containing 0.1 mg/ml LPS, followed by treatment with 1×10^5 cells of IC21 for 6 hours. Then, the supernatant was obtained and the expression levels of interleukin-6 (IL-6) and a tumor necrosis factor-alpha (TNF-a) were checked by ELISA.

NF-κB = test: LPS-induced phosphorylation of NF-kB in IC21, Western blot; type: cell-based, mouse; conditions: 5 mM peptide, 10 ng/ml endotoxin, 6 hours, vs control treated with LPS only
From the text: Specifically, LPS was used to induce an immune activation response caused by bacterial infection, and the phosphorylation of nuclear factor kappa-light-chain-enhancer of activated B cells (NF-kB) was checked to identify the mechanism of the immune activation response. […] Thereafter, the cells were washed with a PBS solution and then lysed with a RIPA buffer, and the supernatant was separated. In order to measure the change in the phosphorylation amount of NF-κB protein with the separated supernatant, the Western blot was performed as in Example 2.

IC21 = test: XTT cytotoxicity test; type: cell-based, mouse; conditions: at a concentration of 10 mM; FIGS. 4-B and 4-C
Experimental: Specifically, in order to check the cytotoxicity of the peptides, the XTT test method for measuring the activity of mitochondria in cells was used. First, […] 16 hours, followed by XTT assay for 1 hour to measure the amount of water-soluble formazan produced by reduction by dehydrogenase in the mitochondria.

MAVS proteins = target: T1, MAVS proteins (Mus musculus, UniProt Q8VCF0); test: MAVS aggregation induced by LPS and nigericin, Western blot of isolated mitochondria; type: cell-based; conditions: 5 mM peptide; IC21; 1 mg/ml LPS 4 hours then 5 mM nigericin 1 hour; vs control group treated with endotoxin and nigericin
T1 construct: mitochondria in IC21 were isolated with a hypotonic buffer and centrifugation; endogenous in cells; host or cells: IC21 mouse peritoneal macrophage cell line
T1 sequence (Q8VCF0 1-503): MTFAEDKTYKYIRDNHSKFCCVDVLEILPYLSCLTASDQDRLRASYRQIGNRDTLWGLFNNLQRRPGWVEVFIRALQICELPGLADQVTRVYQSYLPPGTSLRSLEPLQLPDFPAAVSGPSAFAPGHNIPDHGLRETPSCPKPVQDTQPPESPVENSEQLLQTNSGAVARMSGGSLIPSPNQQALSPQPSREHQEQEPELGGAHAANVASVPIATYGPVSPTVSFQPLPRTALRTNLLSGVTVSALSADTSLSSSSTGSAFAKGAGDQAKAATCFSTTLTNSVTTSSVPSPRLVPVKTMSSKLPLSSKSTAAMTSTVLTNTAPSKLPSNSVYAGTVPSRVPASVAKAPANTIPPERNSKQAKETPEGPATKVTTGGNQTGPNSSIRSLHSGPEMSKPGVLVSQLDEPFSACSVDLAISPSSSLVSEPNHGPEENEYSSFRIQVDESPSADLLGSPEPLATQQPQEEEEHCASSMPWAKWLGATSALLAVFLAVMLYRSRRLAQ
Experimental: Specifically, the aggregation of MAVS proteins was induced by stimulation with pathogen-associated molecular patterns (PAMPs), and endotoxin (lipopolysaccharide (LPS)) and nigericin were used as the PAMPs. First, 5 mM MQP-15, MQP-23, MQP-31 or MQP-37 was added to a serum-free cell culture medium containing 1 mg/ml LPS, followed by treatment with 1×10^5 cells of a mouse peritoneal macrophage cell line (IC21) for 4 hours. Then, 5 mM MQP-15, MQP-23, MQP-31 or MQP-37 was added to a serum-free cell culture medium containing 5 mM nigericin, followed by treatment with IC21 for additional 1 hour. Thereafter, mitochondria in IC21 were isolated with a hypotonic buffer and centrifugation. Then, in order to check the result of MAVS aggregation by the Western blot, a sample was prepared using a semi-denaturing detergent in the isolated mitochondria and electrophoresis was performed. After the electrophoretically isolated mitochondrial protein was transferred to a polyvinylidene difluoride (PVDF) membrane, a primary antibody recognizing the MAVS proteins and a secondary antibody recognizing the primary antibody were additionally treated. Thereafter, the aggregation of MAVS proteins was checked by inducing a chemiluminescence reaction of the secondary antibody.

IL-1b = test: LPS/ATP-induced IL-1b expression (inflammasome response) in IC21, ELISA; type: cell-based, mouse; conditions: 1 mg/ml LPS, 5 mM ATP 30 minutes, 2 mM peptide
Experimental: as §1
as §1, with “2” for “5 mM or 1”, “amino acid-substituted” for “alanine-substituted”, “and” for “and 25 mM or”
Specifically, LPS was used to induce an inflammatory response caused by bacterial infection. First, MQP-37 or MQP-37A6 was added to a serum-free cell culture medium containing 0.1 mg/ml LPS, followed by treatment with 1×10^5 cells of IC21 for 6 hours. Then, the supernatant was obtained and the expression level of IL-6 was checked by ELISA. Also, the Western blot was performed and the phosphorylation of NF-κB was checked to identify the mechanism of immune activation response. Thereafter, LPS and ATP were used to induce an inflammasome response caused by bacterial infection, LPS and ATP were used. First, 1 mg/ml LPS and L- or D-MQP-37 and MQP-37A6 were mixed in a serum-free cell culture medium and treated with 1×10^5 cells of IC21. Then, 5 mM ATP and MQP-37 or MQP-37A6 were mixed in a serum-free cell culture medium and treated for 30 minutes. Thereafter, the supernatant was obtained and the expression level of IL-1b was checked by ELISA.

MLE-12 = test: Cytotoxicity at maximum concentration (Example 13); type: cell-based, mouse; conditions: at the maximum concentration in the experiment; FIG. 13B-F

For KRLLFWIFIK [MQP-Y9], the “expression level of IFN-b with various concentrations of peptide” value (interferon-beta (IFN-b)) was “decreased in a concentration-dependent manner”, the “expression level of IFN-b” value (interferon-beta (IFN-b)) was “decreased” and the “production of IL-1b after LPS and nigericin treatment” value [1] was “inhibited in an MQP-Y9 concentration-dependent manner”. For the same substance, the “expression level of IL-6 after LPS treatment with various concentrations of peptide” value (interleukin-6 (IL-6)) was “decreased in a concentration-dependent manner”, the “phosphorylation amount of NF-κB” value (NF-κB) was “significantly decreased” and the “cytotoxicity (XTT)” value (IC21) was “did not exhibit any cytotoxicity”.
For “MQP-15: novel peptide complementary to a MAVS domain sequence (hydropathic complementarity); sequence not tied to the code in the text (LKSLKTLH; MQP-15)”, the “expression level of IFN-b” value (interferon-beta (IFN-b)) was “decreased” and the “aggregation of MAVS proteins” value (MAVS proteins) was “decreased”.
With “MQP-23: novel peptide complementary to a MAVS domain sequence (hydropathic complementarity); sequence not tied to the code in the text (LQHLEDGM; MQP-23)” the “expression level of IFN-b” value (interferon-beta (IFN-b)) was “decreased” and the “aggregation of MAVS proteins” value (MAVS proteins) was “decreased”.
With “MQP-31: novel peptide complementary to a MAVS domain sequence (hydropathic complementarity); sequence not tied to the code in the text (DGTECR; MQP-31)” the “expression level of IFN-b” value (interferon-beta (IFN-b)) was “decreased” and the “aggregation of MAVS proteins” value (MAVS proteins) was “decreased”.
With “MQP-37A1: prepared by substituting the first amino acid of MQP-37A6 with alanine (ALVLADARW; MQP-37A1)” the “inflammasome response caused by bacterial infection (IL-1b), first amino acid substituted” value (IL-1b; FIG. 10A-A) was “most effectively”.
With “MQP-37D6H: MQP-37 whose sixth amino acid (aspartic acid) is substituted with histidine (SLVLAHARW; MQP-37D6H)” the “inflammatory response caused by viral infection (IFN-b)” value (interferon-beta (IFN-b); FIGS. 13A-C and 13A-D) was “inhibited the inflammatory response caused by viral infection in a concentration-dependent manner” and the “inflammasome response caused by bacterial infection (IL-1b), sixth amino acid of MQP-37 substituted” value (IL-1b; FIG. 10A-B) was “effectively”.
With “MQP-37D6W: MQP-37 whose sixth amino acid (aspartic acid) is substituted with tryptophan (SLVLAWARW; MQP-37D6W)” the “inflammatory response caused by viral infection (IFN-b), sixth amino acid of MQP-37 substituted, compared to the original peptide” value (interferon-beta (IFN-b); 2 mM peptide, FIG. 10B-C) was “effectively inhibited even at a low peptide concentration” and the “inhibiting the inflammatory response caused by viral infection (IFN-b), compared to MQP-37 and MQP-37A6” value (interferon-beta (IFN-b); concentration-dependent, FIGS. 13A-A and 13A-B) was “outstanding effect”.
“MQP-T234: novel anti-inflammatory peptide prepared in Example 1 (KVGDRARWGSRS; MQP-T234)” was tested, and the “expression level of IFN-b” value (interferon-beta (IFN-b)) was “decreased”.
For SLVLADARW [MQP-37], the “cytotoxicity (XTT)” value (IC21) was “did not exhibit any cytotoxicity”.
For SLVLAYARW [MQP-37D6Y], the cytotoxicity (MLE-12) was “did not show cytotoxicity”.
